Patent publication US9498460B1, “Halogenated tetracyclic compounds” (KING SAUD UNIVERSITY, priority 2016, dated 2016)
Values after ≈ are worked out from the molar mass of the structure shown.

What was measured:
[1] = tested on: Burkitts Lymphoma (BL) cell lines DG-75; conditions: does not involve caspases, DNA fragmentation or PARP cleavage; cited from earlier work
[2] = tested on: lung carcinoma cell line A549; assay: MTT growth inhibition, A549; type: cell-based; conditions: for IC50: Homo sapiens, A549, MTT test, 96-well plate, serial dilution, spread in brackets; for sensitivity of treated cancer cells, times higher: cell line printed as A459, comparator not stated
Protocol: (§1) Growth inhibitions were measured in 96-well plates. Aliquots of 120 μL of the suspended cells (50,000 mL^−1) were given to 60 μL of a serial dilution of the inhibitor (S). After 5 days of incubations, growths were determined the MTT assay (MTT=3-(4,5-dimethylthiazol-2-yl)-2,5-diphenyltetrazolium bromide). Briefly, 20 μl MTT (5 mg/mL in PBS) were added to each well, and the plates were incubated for 2 h at 37° C., and 5% CO2-atmosphere in the cell incubator. The supernatants were then discarded and 200 μl of isopropanol/HCl were added to each well and mixed to dissolve the formazan crystals. The absorbance was then read at 550 nm using a microplate reader (Thermo Scientific, USA). The viability of the cells was calculated by dividing the absorbance average of the treated cells by the absorbance average of the control cells multiply 100%. […] The activities of the cells were plotted against the concentration of the drugs, and the IC50 values were calculated from the regression curve.
(§2) The cancer cell lines were incubated with serial dilution of each compound (from 313 pg ML^−1 to 5 mg ML^−1) in a 96-well plate for 4 days, and then tested for growth inhibition by MTT-Test.

[3] = tested on: hepatocellular carcinoma HepG2 cell line; assay: MTT growth inhibition, HepG2; type: cell-based; conditions: for IC50: Homo sapiens, MTT test, 96-well plate, serial dilution, spread in brackets; for sensitivity of treated cancer cells, times higher: comparator not stated
Protocol: as §1, §2

[4] = tested on: colorectal carcinoma HTC-116 cell line; assay: MTT growth inhibition, HTC-116 (HCT 116); type: cell-based; conditions: for IC50: Homo sapiens, HCT-116, MTT test, 96-well plate, serial dilution, spread in brackets; for growth inhibition of third cell line (HCT): result in words
Protocol: as §1
The cancer cell lines were incubated with serial dilution of each compound (from 313 pg ML^−1 to 5 mg ML^−1) in a 96-well plate for 4 days, and then tested for growth inhibition by MTT-Test. […] Replacing the formyl groups of the two compounds with amino groups (Sub. 6 and Sub. 7) caused remarkable decreasing of cells sensitivities, and accordingly increasing of IC50 values of the two derivatives as shown in table 2. […] Moreover, the sensitivities of the treated cancer cells to 4 and 5 were 6 times higher in case of the […] cell line A459, and even 40 times higher in case of hepatocyte carcinoma cell line HepG2.

SMILES | IC50 [2] [µg/mL] | IC50 [3] [µg/mL] | IC50 [4] [µg/mL] | melting point [°C] | in vitro antiproliferative activity against DG-75 [1] | sensitivity of treated cancer cells, times higher [2] [times] | sensitivity of treated cancer cells, times higher [3] [times] | growth inhibition of third cell line (HCT) [4]
CNCCCC12CCC(c3ccccc31)c1ccccc12 [Maprotiline, 9,10-dihydro-N-methyl-9,10-ethanoanthracene-9-propanamine] | – | – | – | – | antiproliferative agent | – | – | –
O=CC1CC2c3c(Cl)cccc3C1c1cccc(Cl)c12 (stereo not shown) [Compound 5, 1,8-dichloro-9,10-dihydro-9,10-ethanoanthracene-11-carbaldehyde] | 3.71 (≈ 12.2 µM) | 0.65 (≈ 2.14 µM) | 0.7 (≈ 2.31 µM) | – | – | 6 | 40 | able to inhibit the growth

Now from value to compound, other results behind:

IC50 [2] [µg/mL] | IC50 [3] [µg/mL] | IC50 [4] [µg/mL] | melting point [°C] | SMILES | in vitro antiproliferative activity against DG-75 [1] | sensitivity of treated cancer cells, times higher [2] [times] | sensitivity of treated cancer cells, times higher [3] [times] | growth inhibition of third cell line (HCT) [4]
1.1 (≈ 3.63 µM) | 0.12 (≈ 0.396 µM) | 0.4 (≈ 1.32 µM) | – | O=CC1CC2c3cccc(Cl)c3C1c1c(Cl)cccc12 (stereo not shown) [Compound 4, 4,5-dichloro-9,10-dihydro-9,10-ethanoanthracene-11-carbaldehyde] | – | 6 | 40 | able to inhibit the growth
18.9 (≈ 59.4 µM) | 13.8 (≈ 43.4 µM) | – | 310 | CNCC1CC2c3c(Cl)cccc3C1c1cccc(Cl)c12 (stereo not shown) [Compound 7, 1-(1,8-dichloro-9,10-dihydro-9,10-ethanoanthracen-11-yl)-N-methylmethanamine] | – | – | – | –
25.5 (≈ 80.1 µM) | 12.7 (≈ 39.8 µM) | – | 290 | CNCC1CC2c3cccc(Cl)c3C1c1c(Cl)cccc12 (stereo not shown) [Compound 6, 1-(4,5-dichloro-9,10-dihydro-9,10-ethanoanthracen-11-yl)-N-methylmethanamine] | – | – | – | –
